Assays:
SARS-CoV-2 = type: cell-based
[1] = Phase 1 and Phase 2 clinical trials; ref Satoh et al., 2009; Kelly et al., 2013; cited from earlier work

Structure (SMILES)	intracellular NP level versus control group (10 μmol/L chloroquine) (SARS-CoV-2)	tolerability in humans [1]
C[C@H]1COC2=C1C(=O)C(=O)c1c2ccc2c1CCCC2(C)C [cryptotanshinone]	comparable NP levels with the control group	
Cc1coc2c1C(=O)C(=O)c1c-2ccc2c(C)cccc12 [tanshinone I]	comparable NP levels with the control group	
COCCn1c2c([n+](Cc3cnccn3)c1C)C(=O)c1ccccc1C2=O [YM155]		well tolerated

From publication PMC8052528 (Protein & Cell, 2021)
